Measured values taken from patent US12630512B2, “Agents for differentiating stem cells and treating cancer” (Minerva Biotechnologies Corporation, priority 2017, dated 2026).

What was measured:
[1] = system: human naïve state stem cells; assay: Stem cell drug screen on naïve state stem cells (pluripotency, proliferation, differentiation); assay type: cell-based; parameters: key to score for inhibition of naïve stem cell pluripotency and proliferation: 0 being no change in morphology or cell number; 4 being the most profound effect; conditions: naïve state stem cells; for inhibition at 6 µM: Homo sapiens, 6 uM final concentration per FIGS. 46-64, read-out: inhibited naïve stem cell pluripotency and proliferation; for score for inhibition of naïve stem cell pluripotency and proliferation: scored by eye 0-4, 6 uM per FIGS. 46-64
Procedure: (§1) The stem cell screening assay, was performed in both the presence and absence of the stem cell growth factors: NME7AB for growing naïve stem cells or FGF for growing primed stem cells. If the cognate growth factor was present, then the biological or small molecule would have to compete away the growth factor to get an effect. Therefore, we expected to see more of an effect when the growth factor, FGF for primed stem cells or NME7AB or NME1 dimers for naïve stem cells, was absent. The effect of the compounds on stem cells was visually determined and compounds were ranked 0-4, with 4 being the greatest effect and 0 being no observable effect. The major effect that was observed was a change from pluripotent stem cell morphology, which is a cobblestone pattern of small round cells with a large nucleus to cytoplasm ratio, to that of differentiating stem cells, which are elongated, large and flattened cells with a smaller nucleus to cytoplasm ratio. […] The compounds were added to a final concentration of 6 uM to either naïve state stem cells or primed state stem cells. In this particular case, the naïve state stem cells were maintained in a naïve state by culturing in a media containing NME7AB or NME1 dimers. However, other methods such as 2i and 5i (Silva et al., 2008, Nichols and Smith, 2009, Theunissen et al., 2014)] can be used to maintain stem cells in a more naïve state. In this case primed state stem cells were cultured in bFGF over a layer of MEFs, although it is known that any bFGF containing media will maintain stem cells in the primed state.
(§2) Percent inhibition of cancer cell migration was performed in a wound healing assay. The percent area that the invading cancer cells occupied, in the presence of a drug candidate compared to the controls, was quantified by Image J cell software which enables cell counting from photographs. IC50's were calculated by performing migration experiments at several compound concentrations and then applying Hill's equation. Inhibition of cancer cell proliferation was quantified by automated cell counting in the presence or absence of a drug candidate. Here, the inhibition of cancer cell proliferation was scored 1 if proliferation was inhibited by 25%, 2 if inhibited by […] and 4 for the highest degree of inhibition of proliferation, and 0 for the lowest. The effect of the drug candidates on stem cell pluripotency or proliferation was scored by eye, based on cell morphology and cell density, with 0 being no change in morphology or cell number and 4 being the most profound effect, with the stem cells taking on the morphology of a differentiating cell, along with much fewer cells indicative of inhibition of proliferation. As an example, FIGS. 30A-30F show photographs of naïve stem cell, primed stem cell and fibroblast controls. FIGS. 31A-31F show the effect of compounds of the invention on naïve state stem cells, where the number of ‘+’ signs indicates the score from 0-4 of ability of compound to inhibit pluripotency, proliferation of naïve stem cells or ability to induce their differentiation. […] FIGS. 36-44 and 65-87 show photographs and IC50 graphs of the compounds of the invention, inhibiting cancer cell migration and invasion. Cancer cell migration is a hallmark of metastatic cancer.
Stem cells whether embryonic or induced pluripotent stem (iPS) cells were cultured in a minimal, serum-free media that contained human recombinant NME7AB at a concentration of 2-32 nM wherein 4-8 nM is preferred and 4 nM is more preferred. To facilitate surface attachment, cell culture plates were coated with an anti-MUC1* monoclonal antibody called MN-C3 or C3 or MN-C8 at a concentration of 2-100 μg/mL coating solution, wherein 3-50 ug/mL is preferred and 6-12.5 ug/mL is more preferred. In these experiments, 12.5 ug/mL of MN-C3 was used. Antibody coated plates were incubated at 4 degrees C. overnight prior to plating stem cells. A Rho kinase I inhibitor was added to enhance surface attachment. […]

[2] = system: human primed state stem cells; assay: Stem cell drug screen on primed state stem cells (pluripotency, proliferation, differentiation); assay type: cell-based; conditions: primed state stem cells; 6 uM per FIGS. 46-64
Procedure: as §1, §2
Stem cells whether embryonic or induced pluripotent stem (iPS) cells were cultured in a minimal, serum-free media that contained human recombinant bFGF at a concentration of 8 ng/mL. The stem cells were plated over a layer of inactivated mouse embryonic fibroblasts, aka MEFs, which secrete additional uncharacterized growth factors and cytokines.
Human naïve state and primed stem cells were cultured in parallel for at least 5 passages to guarantee normal differentiation-free growth. The stem cells were plated in 12-well cell culture plates with 50,000 cells per well. Cells were cultured in their respective media, either bFGF media or NME7AB media for 24 hours. […]

[3] = system: micro-RNA-145; assay: RT-PCR measurement of miR-145 in T47D cancer cells; assay type: cell-based, human; conditions: treated for 72 hours (FIG. 92A-92C)
Procedure: FIGS. 92A-92C show graphs of RT-PCR measurement of T47D cancer cells treated for 72 hours with compounds of the invention at the indicated concentrations, wherein the gene that is measured is micro-RNA-145, which is a harbinger of stem cell differentiation
We used RT-PCR to measure changes in the expression of some of these super-enhancer genes, AXIN2, which is a surrogate for activated β-catenin, miR-145, MUC1 and MUC1* ligands NME7AB and NME7-X1. […] Thus, compounds of the invention, at least in part, inhibit tumor cell migration and invasiveness by inducing expression of genes that are critical for differentiation, some of which are super-enhancer target genes, and miR-145, while decreasing expression of β-catenin, MUC1 and its growth factor NME7AB. Novel compounds of the invention are powerful agents for the treatment or prevention of cancers and metastatic cancers. […] In one aspect of the invention, a biological sample from a patient is tested for the presence of MUC1*, NME7AB or NME7-X1, and upon finding that the patient's cancer is positive for MUC1*, NME7AB or NME7-X1, a compound of the invention is administered to the patient in an amount suitable to prevent or treat the cancer. In one instance, the patient sample is subjected to a test, such as PCR, to determine the amount of nucleic acid that encodes MUC1, NME7 or NME7-X1. […] In another aspect of the invention, the patient's cancer is considered to be MUC1* positive, NME7AB positive or NME7-X1 positive if expression of those genes is equal to or greater than 0.5% of EEF1A1 expression in those cells. In yet another aspect of the invention, the patient's cancer is considered to be MUC1* positive if the patient's tissue specimen is contacted with an antibody that binds to the PSMGFR peptide or the N-10 peptide and stains the tissue with a pathologist's standard score 1-4 (“+−++++”). […]

SMILES: CN(C[C@H]1CC[C@H](C(=O)N2CCc3c([nH]c4ccccc34)C2C2CC2)CC1)C(=O)NC(C)(C)C (stereo partly drawn) [MN1413]
- inhibition at 6 µM [1]: 100%
- score for inhibition of naïve stem cell pluripotency and proliferation [1]: 4
- effect on primed state stem cells [2]: no effect
- expression of miR-145 in T47D cancer cells [3]: increased expression of miR-145 in cancer cells

SMILES: C[C@@H]1Cc2c([nH]c3ccccc23)CN1C(=O)C1CCC(CN(C)C(=O)NC(C)(C)C)CC1 (stereo partly drawn) [MN1423]
- inhibition at 6 µM [1]: 100%
- score for inhibition of naïve stem cell pluripotency and proliferation [1]: 4
- effect on primed state stem cells [2]: no effect
- expression of miR-145 in T47D cancer cells [3]: increased expression of miR-145 in cancer cells

SMILES: CN(CC1CCC(C(=O)N2CCC(c3ccncc3)CC2)CC1)C(=O)OC(C)(C)C (stereo not drawn) [MN1428, Tert-butyl methyl((4-(4-(pyridin-4-yl)piperidine-1-carbonyl)cyclohexyl)methyl)carbamate]
- inhibition at 6 µM [1]: 100%
- score for inhibition of naïve stem cell pluripotency and proliferation [1]: 4
- effect on primed state stem cells [2]: no effect
- expression of miR-145 in T47D cancer cells [3]: increased expression of miR-145 in cancer cells
